Experimental data taken from paper PMC12175533, “A cell-cell communication signal from Enterobacter cloacae interfering with the signaling systems and virulence in Shigella sonnei” (Applied and Environmental Microbiology, 2025).

Target: T1, YjgB (ECL_RS22935), alcohol dehydrogenase (Enterobacter cloacae, UniProt A0A0H3CR94)
T1 construct: gene ECL_04598; full-length ORF in pET-28a(+), His-tag fusion, E. coli BL21(DE3) with ZnCl2, HisTrap
Assay: HPLC product formation assay
Type: biochemical
Conditions: 200 uM substrate, 0.2 mM NADPH, 50 mM Tris-HCl, pH 8.0, 37 °C, 10 uM enzyme

T1 sequence (A0A0H3CR94 entry or part of it): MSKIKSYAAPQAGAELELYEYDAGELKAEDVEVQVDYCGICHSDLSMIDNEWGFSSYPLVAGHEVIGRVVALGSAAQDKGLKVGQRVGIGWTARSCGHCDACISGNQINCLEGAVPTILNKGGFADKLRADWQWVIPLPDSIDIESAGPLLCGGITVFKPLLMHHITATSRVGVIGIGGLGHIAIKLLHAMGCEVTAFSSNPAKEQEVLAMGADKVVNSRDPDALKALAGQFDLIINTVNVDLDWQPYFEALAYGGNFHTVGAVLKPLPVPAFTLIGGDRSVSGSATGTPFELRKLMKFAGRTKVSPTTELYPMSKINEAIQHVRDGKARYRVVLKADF

| Compound | HPLC product formation assay |
| --- | --- |
| O=CCc1c[nH]c2ccccc12 [indole-3-acetaldehyde] | In vitro enzymatic assays demonstrated that YjgB directly catalyzed the conversion of indole-3-acetaldehyde to indole-3-ethanol |
| OCCc1c[nH]c2ccccc12 [indole-3-ethanol] | YjgB directly catalyzed the conversion of indole-3-acetaldehyde to indole-3-ethanol |
